Data reported in EP4711368A1 (priority 2023, dated 2024).
Where two headings read alike, the source gives them in different places.

What was measured:
[1] = tested on: SD rats; assay: animal or person; type: in vivo; settings: iv; for Minimal effective anesthetic dose / Onset time / Righting feflex duration / Sedation Duration: rat, in vivo; for minimal effective dose: Rattus norvegicus
[2] = tested on: SD rats; settings: rat, in vivo; for MLD: iv; for Onset time: test concentration or dose not given here; for Righting feflex duration: test concentration or dose not given here; for Sedation Duration: test concentration or dose not given here
[3] = read-out: Minimal effective anesthetic dose
[4] = read-out: Minimal effective analgesic dose

| SMILES | Minimal effective anesthetic dose [1] | Onset time [1] | Righting feflex duration [1] | Sedation Duration [1] | TI [2] | MLD [2] | minimal effective dose [1, 3] | TI ([2]; SD) | MLD ([2]; SD) | minimal effective dose [1, 4] |
| --- | --- | --- | --- | --- | --- | --- | --- | --- | --- | --- |
| CC(=O)OCCC1N=C(c2ccccn2)c2cc(Br)ccc2N(C)C1=O (centres unmarked) [Compound 115] | 2.5 mg/kg | 0.2 to 0.4 min | 4.9 to 14.1 min | 12.4 to 56.0 min | 16 | 40 mg/kg |  |  |  |  |
| CCC(=O)OCC1N=C(c2ccccn2)c2cc(Br)ccc2N(C)C1=O (centres unmarked) [Compound 40] | 5.0 mg/kg | 0.2 to 0.5 min | 1.3 to 17.2 min | 40.2 to 364.0 min | 8.0 | 40 mg/kg |  |  |  |  |
| CN(C)C(=O)OCCN1N=C(c2ccccn2)c2cc(Br)ccc2N(C)C1=O [Compound 304] |  | 0.18 to 0.57 min | 1.92 to 5.35 min | 10.57 to 18.57 min |  |  | 5 mg/kg | 4 | 20 mg/kg |  |
| CON(C)C(=O)OCN1N=C(c2ccccn2)c2cc(Br)ccc2N(C)C1=O [Compound 294] |  | 0.52 to 0.55 min | 3.35 to 6.47 min | 28.68 to 40.58 min |  |  | 15 mg/kg | >1.3 | >20 mg/kg |  |
| CC(C)OC(=O)CN1N=C(c2ccccn2)c2cc(Br)ccc2N(C(C)C)C1=O [Compound 257] |  | 0.77 to 1.48 min | 5.85 to 20.40 min | 33.47 to 64.03 min |  |  | 10 mg/kg | 4 | 40 mg/kg | 10 mg/kg |
| C#CC(C)(C)OC(=O)CCC1N=C(c2ccccn2)c2cc(Br)ccc2N(C)C1=O (centres unmarked) [Compound 17] | 1.3 mg/kg | 0.2 to 0.5 min | 1.6 to 3.3 min | 6.6 to 9.9 min | >3.8 | >5 mg/kg |  |  |  |  |
| CN1C(=O)N(CCOC(=O)CCl)N=C(c2ccccn2)c2cc(Br)ccc21 [Compound 300] |  | 0.25 min | 4.67 min | 76.20 min |  |  | 40 mg/kg | >1 | >40 mg/kg |  |
| Cc1cnc2n1-c1ccc(Br)cc1C(c1ccccn1)=NN2CCOC(=O)C(C)C [Compound 315] |  | 0.38 to 0.75 min | 0.58 to 2.35 min | 14.12 to 24.55 min |  |  | 3.75 mg/kg | 2.7 | 10 mg/kg | 30 mg/kg |
| Cc1cnc2n1-c1ccc(Br)cc1C(c1ccccn1)=NC2CCOC(=O)N(C)C (centres unmarked) [Compound 156] | 1.8 mg/kg | 0.2 to 0.4 min | 1.7 to 31.9 min | 9.3 to 91.5 min | 11.1 | 20 mg/kg |  |  |  |  |
| CN1C(=O)N(CC(=O)OC2COC2)N=C(c2ccccn2)c2cc(Br)ccc21 [Compound 245] |  | 0.15 to 0.67 min | 1.27 to 1.40 min | 11.02 to 18.83 min |  |  | 10 mg/kg | 4 | 40 mg/kg | 20 mg/kg |
| Cc1ccc(C(=O)OCC2N=C(c3ccccn3)c3cc(Br)ccc3-n3c(C)cnc32)cc1 (centres unmarked) [Compound 192] | 5.0 mg/kg | 0.2 to 0.4 min | 5.9 to 14.9 min | 156.7 to 200.0 min | 2.0 | 10.0 mg/kg |  |  |  |  |
| CC(C)COC(=O)CN1N=C(c2ccccn2)c2cc(Br)ccc2N(C)C1=O [Compound 240] |  | 0.30 to 0.48 min | 0.62 to 15.83 min | 15.27 to 36.70 min |  |  | 10 mg/kg | 3 | 30 mg/kg | 30 mg/kg |
| CCn1nnnc1CCN1N=C(c2ccccn2)c2cc(Br)ccc2N(C)C1=O [Compound 264] |  | 0.43 min | 1.77 min | 8.93 min |  |  | 5 mg/kg | 2 | 10 mg/kg |  |
| CCOC(=O)CN1N=C(c2ccccn2)C(Cl)=CN(C)C1=O [Compound 348] |  | 0.75 min | 2.03 min | 116.72 min |  |  | 20 mg/kg | >1 | >20 mg/kg |  |
| CCC(C)OC(=O)CN1N=C(c2ccccn2)c2cc(Br)ccc2N(C)C1=O (centres unmarked) [Compound 241] |  | 0.43 to 0.90 min | 3.47 to 30.13 min | 18.10 to 73.95 min |  |  | 7.5 mg/kg | 4 | 30 mg/kg |  |
| CCC(C)(C)OC(=O)CN1N=C(c2ccccn2)c2cc(Br)ccc2-n2c(C)cnc21 [Compound 313] |  | 0.53 to 0.97 min | 12.27 to 13.62 min | 43.43 to 66.15 min |  |  | 15 mg/kg | 2 | 30 mg/kg | 20 mg/kg |
